Measured values published in PMC7397274, “Triazolopyridopyrimidine: A New Scaffold for Dual-Target Small Molecules for Alzheimer’s Disease Therapy” (Molecules, 2020).
Values joined by “and” are separate entries in the source; they are usually repeats but may differ in a detail not shown here. Equal values may be shown once. Read-outs that look alike come from different tables or passages of the source.

Tests used:
EeAChE = molecular target: T1, EeAChE (Electrophorus electricus, UniProt O42275); assay: biochemical; type: biochemical; settings: for inhibition at 10 µM: 10 μM compound; for inhibition at 10 µM / IC50: Ellman method; for IC50: mean ± SEM; for fold less active than tacrine (EeAChE IC50): relative to tacrine IC50 = 0.03 μM
T1 construct: purchased Sigma Aldrich
T1 sequence (O42275 24-633): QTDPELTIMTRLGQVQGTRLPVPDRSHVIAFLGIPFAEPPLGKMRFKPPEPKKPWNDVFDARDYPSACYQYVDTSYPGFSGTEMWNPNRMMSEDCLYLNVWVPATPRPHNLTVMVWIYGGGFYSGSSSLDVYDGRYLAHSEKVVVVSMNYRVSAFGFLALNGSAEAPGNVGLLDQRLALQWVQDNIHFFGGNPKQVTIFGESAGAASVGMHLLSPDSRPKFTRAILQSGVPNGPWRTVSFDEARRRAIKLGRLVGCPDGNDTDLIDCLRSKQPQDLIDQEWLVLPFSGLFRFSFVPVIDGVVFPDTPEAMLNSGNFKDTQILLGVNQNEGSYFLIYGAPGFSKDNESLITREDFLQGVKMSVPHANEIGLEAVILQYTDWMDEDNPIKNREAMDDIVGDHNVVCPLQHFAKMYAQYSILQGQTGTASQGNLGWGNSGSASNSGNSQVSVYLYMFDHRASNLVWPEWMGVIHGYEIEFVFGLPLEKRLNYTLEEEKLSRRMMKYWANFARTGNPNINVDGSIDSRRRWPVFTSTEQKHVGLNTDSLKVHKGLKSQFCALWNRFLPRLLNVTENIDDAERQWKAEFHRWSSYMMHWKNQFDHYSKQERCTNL
Description: The effect of the test compounds on the activity of both EeAChE and eqBuChE was evaluated following the spectrophotometric method of Ellman. The reaction occurred in a final volume of 3 mL of a 0.1 M phosphate-buffered solution at pH = 8.0, containing 5,5′-dithiobis-2-nitrobenzoic acid (DTNB, 2625 µL, 0.35 mM, final concentration), EeAChE (29 µL, 0.035 U/mL, final concentration) or eqBuChE (60 µL, 0.05 U/mL, final concentration), tested compound (3 µL, […]), and 1% w/v bovine albumin serum phosphate-buffered (pH = 8) solution (BSA, 60 µL). After this pre-incubation period, acetylthiocholine iodide (105 µL, 0.35 mM, final concentration) or butyrylthiocholine iodide (150 µL, 0.5 mM, final concentration) was added, allowing 15 min of additional incubation time.

[1] = ORAC-FL; for ORAC (TE): fluorescein probe, Trolox standard, mean (n = 3) ± SEM; for antioxidant activity (ORAC) in words: qualitative statement or comparison with positive controls
Description: The ability of triazolopyridopyrimidines 3a–k to reduce the amount of peroxyl radicals was determined by the oxygen radical absorbance capacity by fluorescence (ORAC-FL) method [26, 27] using fluorescein (FL) as the fluorescent probe, and 6-hydroxy-2,5,7,8-tetramethyl-chroman-2-carboxylic acid (Trolox) as standard compound. Results were expressed as μmol Trolox equivalents (TE).
Briefly, fluorescein and antioxidant were incubated in a black 96-well microplate (Nunc) for 15 min at 37 °C. 2,2′-Azobis(amidinopropane) dihydrochloride was then added quickly using the built-in injector of Varioskan Flash plate reader (Thermo Scientific). The fluorescence was measured at 485 nm (excitation wavelength) and 535 nm (emission wavelength) each min for 1 h. All the reactions were made in triplicate and at least three different assays were performed for each sample.

Structure (SMILES)	inhibition at 10 µM (EeAChE)	IC50 (EeAChE)	fold less active than tacrine (EeAChE IC50) (EeAChE)	ORAC (TE) [1]	antioxidant activity (ORAC) in words [1]	ORAC (TE) ([1]; listed as ferulic acid)
Cc1ccc(-c2c(C#N)c3nc(-c4ccccc4)nn3c3ncnc(N)c23)cc1 [Compound 3b, 6-Amino-2-phenyl-5-(p-tolyl)-[1,2,4]triazolo[1′,5′:1,6]pyrido[2,3-d] pyrimidine-4-carbonitrile]	73.13 ± 0.1%	1.17 µM	39 fold	1.77 TE and 1.77 ± 0.1 TE	–	–
N#Cc1c(-c2ccc(Oc3ccccc3)cc2)c2c(N)ncnc2n2nc(-c3ccccc3)nc12 [Compound 3k, 6-Amino-5-(4-phenoxyphenyl)-2-phenyl-[1,2,4]triazolo[1′,5′:1,6]pyrido[2,3-d] pyrimidine-4-carbonitrile]	18.6 ± 1.8%	–	–	2.99 ± 0.2 TE	weaker antioxidant activity	–
N#Cc1c(-c2ccccc2)c2c(N)ncnc2n2nc(-c3ccccc3)nc12 [Compound 3a, 6-Amino-2,5-diphenyl-[1,2,4]triazolo[1′,5′:1,6]pyrido[2,3-d] pyrimidine-4-carbonitrile]	40.3 ± 2.4%	–	–	1.85 ± 0.1 TE	–	–
COc1cc(/C=C/C(=O)O)ccc1O [Ferulic acid, reference compound]	–	–	–	3.74 ± 0.2 TE	–	3.7 TE
COc1ccccc1-c1c(C#N)c2nc(-c3ccccc3)nn2c2ncnc(N)c12 [Compound 3e, 6-Amino-5-(2-methoxyphenyl)-2-phenyl-[1,2,4]triazolo[1′,5′:1,6]pyrido[2,3-d] pyrimidine-4-carbonitrile]	32.3 ± 2.4%	–	–	3.79 ± 0.1 TE	–	–
COc1ccc(-c2c(C#N)c3nc(-c4ccccc4)nn3c3ncnc(N)c23)cc1 [Compound 3c, 6-Amino-5-(4-methoxyphenyl)-2-phenyl-[1,2,4]triazolo[1′,5′:1,6]pyrido[2,3-d] pyrimidine-4-carbonitrile]	63.9 ± 1.8%	1.3 µM and 1.32 µM	44 fold	4.01 TE and 4.01 ± 0.1 TE	–	–
N#Cc1c(-c2ccc([N+](=O)[O-])cc2)c2c(N)ncnc2n2nc(-c3ccccc3)nc12 [Compound 3h, 6-Amino-5-(4-nitrophenyl)-2-phenyl-[1,2,4]triazolo[1′,5′:1,6]pyrido[2,3-d] pyrimidine-4-carbonitrile]	44.6 ± 1.6%	–	–	3.54 ± 0.1 TE	moderate antioxidants	–
N#Cc1c(-c2ccc(Cl)cc2)c2c(N)ncnc2n2nc(-c3ccccc3)nc12 [Compound 3f, 6-Amino-5-(4-chlorophenyl)-2-phenyl-[1,2,4]triazolo[1′,5′:1,6]pyrido[2,3-d] pyrimidine-4-carbonitrile]	43.9 ± 1.2%	–	–	1.81 ± 0.1 TE	–	–
COc1cccc(-c2c(C#N)c3nc(-c4ccccc4)nn3c3ncnc(N)c23)c1 [Compound 3d, 6-Amino-5-(3-methoxyphenyl)-2-phenyl-[1,2,4]triazolo[1′,5′:1,6]pyrido[2,3-d] pyrimidine-4-carbonitrile]	31.2 ± 2.1%	–	–	4.33 ± 0.1 TE	–	–
CC(C)c1ccc(-c2c(C#N)c3nc(-c4ccccc4)nn3c3ncnc(N)c23)cc1 [Compound 3i, 6-Amino-5-(4-isopropylphenyl)-2-phenyl-[1,2,4]triazolo[1′,5′:1,6]pyrido[2,3-d] pyrimidine-4-carbonitrile]	18.2 ± 1%	–	–	1.89 ± 0.1 TE	–	–
N#Cc1c(-c2ccc(Br)cc2)c2c(N)ncnc2n2nc(-c3ccccc3)nc12 [Compound 3j, 6-Amino-5-(4-bromophenyl)-2-phenyl-[1,2,4]triazolo[1′,5′:1,6]pyrido[2,3-d] pyrimidine-4-carbonitrile]	38.1 ± 1.1%	–	–	2.57 ± 0.0 TE	–	–
N#Cc1c(-c2ccc(O)cc2)c2c(N)ncnc2n2nc(-c3ccccc3)nc12 [Compound 3g, 6-Amino-5-(4-hydroxyphenyl)-2-phenyl-[1,2,4]triazolo[1′,5′:1,6]pyrido[2,3-d] pyrimidine-4-carbonitrile]	36.4 ± 0.6%	–	–	7.17 TE and 7.17 ± 0.2 TE	most potent antioxidant	–
